Reference: PMC8764033, “Single-molecule analysis of specificity and multivalency in binding of short linear substrate motifs to the APC/C” (Nature Communications, 2022)
“And” between values parts separate entries of the source, which are not always exact repeats. Equal entries are not always repeated. Where two headings read alike, the source gives them in different places. Where a SMILES comes first, the peptide text is derived from it.

What was measured:
APC/C^Cdh1 = target: T1, APC/C^Cdh1 (Saccharomyces cerevisiae, UniProt P53068+P53197); format: binding; settings: for mean dwell time: representative of two independent experiments, ± SE, ligand ≤1 nM, buffer C + BSA
T1 construct: APC/C was purified from yeast cells; made in house; host or cells: APC/C from S. cerevisiae W303 strain NHY13 (Cdc16-TAP, Apc1-GFP, cdh1 deleted); Cdh1 from Sf9 (baculovirus)
Procedure: (§1) Yeast strains were derivatives of W303 and are listed in Supplementary Table 2. For APC/C purification, we used a strain carrying Cdc16-TAP and lacking Cdh1 (DOM1126); in most experiments, the strain also carried Apc1-GFP (NHY13). Yeast were grown in YPD media to OD600 = 0.8, collected and flash-frozen. Cells were lysed by bead beating in lysis buffer A (50 mM HEPES pH 7.5, 150 mM KCl, 10% glycerol, 0.2% Triton X-100, 63 µM B-glycerophosphate, 48 µM sodium fluoride, 1 µg ml^−1 pepstatin A, 1 µg ml^−1 leupeptin, 1 µg ml^−1 aprotinin, 1 mM PMSF, 1 mM DTT, 0.5 mM EDTA) and APC/C was purified using magnetic IgG beads. The beads were washed using wash buffer A (20 mM HEPES pH 7.5, 150 mM KCl, 10% Glycerol, 0.05% Triton X-100). After incubation with purified Cdh1 or Cdc20, the APC/C was cleaved off the beads with TEV protease in wash buffer A with 0.05% Tween-20 (for single-molecule studies) or 0.05% Triton X-100 (for ensemble assays such as ubiquitylation) and used immediately.
(§2) For all SMOR experiments, 24 × 50 mm high precision glass coverslips (Bioscience Tools) and drilled microscope slides were passivated with a combination of PEG and PEG-biotin (coverslips) or PEG only (slides) following a previously published protocol for SiMPull[31]. Reaction chambers (~20 µl) were created using double-sided tape and epoxy. Protein was immobilized on the surface with 0.2 mg ml^−1 NeutrAvidin in buffer C (20 mM HEPES pH 7.5, 150 mM KCl, 10% glycerol, 0.05% Tween-20, 1 mM DTT). Excess NeutrAvidin was washed away and incubated with either biotin-conjugated mouse monoclonal anti-Strep-Tag II antibody (LSBio, Cat. No. LS-C203632-100) or biotin-conjugated rabbit polyclonal anti-GFP antibody (Rockland, Cat. No. 600-406-215) diluted in buffer C + BSA (0.1 mg ml^−1; Molecular Biology Grade Bovine Serum Albumin). Activator WD40 and activated APC/C (typically 50 µl containing about 65 ng APC/C, of which only a small fraction is immobilized on the glass) were immobilized using anti-Strep-Tag II, while APC/C alone was immobilized with anti-GFP. SMOR results were similar when performed in the buffer (wash buffer B) used in polarization anisotropy.
(§3) To capture dynamic protein–protein interactions, dye-labeled substrate diluted in buffer C + BSA was added to the chamber containing immobilized proteins. Interactions were imaged by TIRF microscopy as described below. For optimal signal-to-noise ratio, peptide concentration was no greater than 1 nM. Protein substrates included Hsl1 aa 667–872 and a C-terminal HaloTag followed by a TAP tag, and were produced by translation in rabbit reticulocyte lysates using TnT Quick Coupled Transcription/Translation System (Promega) (see Supplementary Table 5 for plasmids). Protein was purified with magnetic IgG beads and labeled on the bead with JF549 or JF646 dye so that unbound dye could be washed away. Purified dye-labeled protein was then cleaved from the beads using TEV protease. Before adding substrate to the reaction chamber, oxygen scavenging reagents were added (10 nM protocatechuate-3,4-dioxygenase, 2.5 mM protocatechuic acid, and 1 mM Trolox)[41]. A detailed description of the SMOR analysis pipeline is found in Supplementary Note 1.
(§4) Microscopy was performed with a Nikon Eclipse TE2000-E with Perfect Focus with a 100 × 1.49na oil, Apo TIRF DIC N2, 0.13-0.2, WD0.12 objective. Movies were recorded using the Andor iXon DU-897E-CSO. For visualizing GFP-tagged protein, a 491 nm laser was used with an ET525/50 (Chroma) filter for emission. For visualizing JF549-labeled substrate, a 561 nm laser was used with an ET595/50 (Chroma) filter for emission. For visualizing all Cy5-labeled peptides and JF646-labeled substrates, a 640 nm laser was used with an ET685/70 filter (Chroma) for emission. Initially, for each substrate tested, we acquired movies at multiple intervals to deduce the optimal interval to decrease bleaching. µManager version 2.0 was used to control the microscope and record time-lapse movies.

APC/C^apo = target: T2, APC/C^apo (Saccharomyces cerevisiae, UniProt P38042+P53068); assay: SMOR assay, yeast APC/C^apo (no activator); format: binding; settings: Supplementary Table 1, single movie
T2 construct: APC/C was purified from yeast cells; made in house; host or cells: S. cerevisiae W303 strain NHY13 (Cdc16-TAP, Apc1-GFP, cdh1 deleted)
Procedure: as §1, §2, §3, §4

[1] = Supplementary Table 1, replicate 1
[2] = Supplementary Table 1, replicate 2
[3] = Supplementary Table 1, replicate 1 (movie listed first)
[4] = Supplementary Table 1, replicate 2 (movie listed second)

Compound | binding (in words) (APC/C^Cdh1) | Dwell Time (in words) (APC/C^Cdh1; [1]) | Dwell Time (in words) (APC/C^Cdh1; [2]) | Dwell Time (in words) (APC/C^apo) | Dwell Time (APC/C^Cdh1; [3]) [s] | Dwell Time (APC/C^Cdh1; [4]) [s] | mean dwell time (APC/C^Cdh1)
LPKATRKALGTVNRATEKSVK-K(Cy5) [AurKB D box, Cy5-labeled D box peptide of Aurora B kinase] | No binding | no binding | no binding | no binding |  |  | 
CC[C@H](C)[C@H](NC(=O)[C@H](CC(=O)O)NC(=O)[C@H](CO)NC(=O)[C@H](C)NC(=O)[C@H](C)NC(=O)[C@H](C)NC(=O)[C@H](C)NC(=O)[C@H](CCCCN)NC(=O)[C@@H]1CCCN1C(=O)[C@H](CCCCN)NC(=O)[C@H](CCC(N)=O)NC(=O)[C@@H](N)CCC(=O)O)C(=O)N[C@H](C(=O)N[C@@H](C)C(=O)N[C@@H](CO)C(=O)N[C@@H](Cc1ccccc1)C(=O)N[C@@H](CC(N)=O)C(=O)N[C@@H](CCCCN)C(=O)N[C@@H](CCSC)C(=O)N[C@@H](CC(N)=O)C(=O)N[C@@H](CCCCN)C(=O)O)[C@@H](C)O [Hsl1 D box mutant] (H-EQKPKAAAASDITASFNKMNK-OH; N-terminus and C-terminus assumed) | No binding | no binding |  | no binding |  |  | 
SKAAQFMLYEETAEERNI-K(Cy5) [Acm1 ABBA, Cy5-labeled Cdh1-specific ABBA motif from pseudosubstrate yeast protein Acm1] | No binding | no binding | no binding | no binding |  |  | 
CC(C)C[C@H](NC(=O)[C@H](C)NC(=O)[C@H](CCCNC(=N)N)NC(=O)[C@H](CCCNC(=N)N)NC(=O)[C@@H]1CCCN1C(=O)[C@H](CCCCN)NC(=O)[C@H](CO)NC(=O)[C@H](CC(=O)O)NC(=O)[C@@H](N)CCC(N)=O)C(=O)N[C@H](C(=O)N[C@@H](CC(=O)O)C(=O)N[C@H](C(=O)N1CCC[C@H]1C(=O)N[C@H](C(=O)N[C@@H](CC(N)=O)C(=O)N[C@@H](CC(N)=O)C(=O)N[C@@H](CC(N)=O)C(=O)N1CCC[C@H]1C(=O)N[C@@H](CC(C)C)C(=O)N[C@@H](CO)C(=O)N[C@@H](CCC(N)=O)C(=O)N[C@@H](CCCCN)C(=O)O)C(C)C)C(C)C)[C@@H](C)O [Clb5 D box] (H-QDSKPRRALTDVPVNNNPLSQK-OH; N-terminus and C-terminus assumed) |  |  |  | no binding | 0.146 ± 0.007 | 0.159 ± 0.004 | 0.159 ± 0.004 s and 0.159 s
CC[C@H](C)[C@H](NC(=O)[C@H](Cc1ccccc1)NC(=O)[C@H](CO)NC(=O)[C@H](CCCCN)NC(=O)[C@H](CO)NC(=O)[C@H](CCCNC(=N)N)NC(=O)[C@H](CC(N)=O)NC(=O)[C@H](CC(N)=O)NC(=O)[C@H](CC(=O)O)NC(=O)[C@H](CCCCN)NC(=O)[C@H](C)NC(=O)[C@H](C)NC(=O)[C@H](CC(C)C)NC(=O)[C@@H]1CCCN1C(=O)[C@H](CC(C)C)NC(=O)[C@H](CCCNC(=N)N)NC(=O)CNC(=O)[C@H](CCC(N)=O)NC(=O)[C@H](CCC(N)=O)NC(=O)[C@H](CCC(N)=O)NC(=O)[C@H](C)N)C(=O)N[C@@H](CCCCN)C(=O)O [ySecurin D box] (H-AQQQGRLPLAAKDNNRSKSFIK-OH; N-terminus and C-terminus assumed) |  |  |  | no binding | 0.132 ± 0.002 | 0.121 ± 0.006 | 0.132 ± 0.002 s and 0.132 s
LIYVDKENGEPGTR-K(Cy5) [hSecurin KEN, Cy5-labeled KEN box peptide of human securin/Pttg1] | No binding | no binding | no binding | no binding |  |  | 
